In patent publication US8642794B1, “Biosurfactant compounds produced by Aureobasidium pullulans” (Gyeongbuk Institute for Marine Bio-industry, priority 2012, dated 2014):

Assay: Surface tension measurement with a tensiometer (Sigma 700), aqueous solution dropped onto a hydrophobic film
Type: physicochemical
Conditions: at 1.0 mg/liter; water as control
Protocol: The compounds L3-E3 and L3-E6 isolated in Examples 2 and 4, respectively, were dropped onto the surface of a hydrophobic film, and their surface tension was measured by using a tensiometer (Sigma 700 Tensiometer, KSV Instruments Ltd., Finland). Here, water was used as a control, and the change in surface tension was measured by using a microbial culture, L3-E3 and L3-E6.

surface tension	Compound
29.5 dyne/cm	CCCCCC(O)CC(O)CC(=O)OC(CCCCC)CC(O)CC(=O)OC (centres unmarked) [L3-E3]
36.4 dyne/cm	CCCCCC(O)CC(O)CC(=O)OC(CCCCC)CCCC(=O)OC (centres unmarked) [L3-E6]
